Consider 24 compounds from PubChem BioAssay (NCI).

Experiment in all cases: inhibition of tumour cell growth, NCI panel, 48 h
The test system of experiment [1] is SNB-19 CNS.
The test system of experiment [2] is SF-539 CNS.
Experiment [3] relates to PC-3 prostate.
For experiment [4], the system named is HL-60(TB) leukemia.
Experiment [5] deals with UO-31 renal.
Experiment [6] concerns 786-0 renal.
Experiment [7] deals with BT-549 breast.
Experiment [8] relates to A498 renal.
Experiment [9] concerns CCRF-CEM leukemia.
Experiment [10] deals with SF-295 CNS.
Experiment [11] deals with SN12C renal.

“And” between values parts separate entries of the source, which are not always exact repeats. Equal entries are not always repeated.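 Test compounds were applied to cells in 96-well plates for 48 hours at 5 doses. Here, GI50 denotes the concentration required for 50% inhibition of growth. TGI marks complete inhibition of growth.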

On to `CCOP(=O)(OCC)OC1c2[nH]cc(C(=O)OCc3ccccc3)c2-c2cc(C(=O)OC)[nH]c2C1OC` (stereo not given), for which the TGI is over 100 µM in experiment [1]; over 43.7 µM in experiment [2]; over 100 µM in experiment [3]; over 100 µM in experiment [4]; over 59.1 µM in experiment [5]; 27.4 µM in experiment [6]. Also, the TGI is 45.9 µM in experiment [7]; over 100 µM in experiment [8]; over 100 µM in experiment [9]; 28.8 µM in experiment [10]; over 100 µM in experiment [11].
On to `CC(C)Oc1c(-c2ccc(F)cc2)c(O)c2c3c1oc(=O)n3C=CC2C` (stereo not given), for which the TGI was 31.9 µM in experiment [1]; 26.4 µM in [2]; 31.7 µM in experiment [3]; 31 µM in experiment [4]; 25.5 µM in experiment [5]; 27.8 µM in [6]. For the same compound, the TGI in experiment [7] is 28 µM; in experiment [8], 28.2 µM; in experiment [9] it was 29.8 µM; in experiment [10], 34.6 µM; in [11], 23.8 µM.
For `O=C(OCCNC(=O)N1CC1)OCCNC(=O)N1CC1`, the TGI in experiment [1], in [2], in experiment [3], in experiment [4], in experiment [5] and in experiment [6] was over 10 µM throughout. Also, the TGI in [7], in experiment [8], in experiment [9], in experiment [10] and in experiment [11] was over 10 µM in each case.
As to `CC(=O)CC1=C(OC(C)C)C2(OCCO2)C1O` (stereo not given), the TGI in experiment [1], in experiment [2], in experiment [3], in experiment [4], in experiment [5] and in experiment [6] was over 100 µM in each case. For the same compound, the TGI in experiment [7], in experiment [8], in experiment [9], in experiment [10] and in experiment [11] was over 100 µM each time.
Take `CCO/C=N/C1=C(C#N)SC2=N/C(=C\c3ccccc3)C(=O)N21`: the TGI in [1] was over 100 µM; in experiment [2], over 100 µM; in experiment [3], over 100 µM; in experiment [4], over 83.2 µM; in experiment [5] it was over 100 µM; in [6], over 100 µM. Further, the TGI in [7], in experiment [8], in experiment [9], in [10] and in experiment [11] was over 100 µM in each case.
With `BrCC[N+]12CC[N+](CCBr)(CC1)C2`, the TGI in experiment [1], in [2], in experiment [3], in experiment [4], in experiment [5] and in experiment [6] was over 100 µM throughout. The TGI in experiment [7], in experiment [8], in experiment [9], in experiment [10] and in [11] was over 100 µM each time.
On to `ClCCCCCc1c2nc(c(CCCCCCl)c3ccc([nH]3)c(CCCCCCl)c3ccc([nH]3)c(CCCCCCl)c3nc1C=C3)C=C2`, for which the TGI in [1], in experiment [2], in experiment [3], in experiment [4], in experiment [5] and in experiment [6] was over 100 µM throughout. Moreover, the TGI in experiment [7], in [8], in [9], in experiment [10] and in [11] was over 100 µM in each case.
As for `COC(=O)/C=C1/OC(c2ccc(OC)cc2)=C(Cl)C1=O`, the TGI in experiment [1] stood at 52.8 µM; in [2], 41 µM; in [3] it was 28.9 µM; in [4], 12.2 µM; in experiment [5], 37.7 µM; in [6], 24.4 µM. The TGI was 26.3 µM in experiment [7]; 49.1 µM in [8]; 17.7 µM in experiment [9]; 43.4 µM in experiment [10]; 40.4 µM in experiment [11].
As for `CNc1nc(C(N)=O)c(N)s1`, the TGI in [1], in experiment [2], in experiment [3], in experiment [4], in experiment [5] and in experiment [6] was over 100 µM in each case. For the same compound, the TGI in experiment [7], in experiment [8], in experiment [9], in experiment [10] and in experiment [11] was over 100 µM throughout.
With `Cc1[nH]c(=O)nc(NNCc2ccc(Cl)cc2)c1C(=O)Nc1ccc(Cl)cc1`, the TGI in [1], in [2], in experiment [3], in experiment [4], in experiment [5] and in experiment [6] was over 100 µM throughout. In addition, the TGI in experiment [7], in experiment [8], in experiment [9], in experiment [10] and in experiment [11] was over 100 µM throughout.
In the case of `CSc1nc2c(c(=O)[nH]1)N=C(c1ccccc1)CC(c1ccccc1)N2` (stereo not given), the TGI in experiment [1] is over 100 µM; in [2], 66.3 µM; in [3], over 100 µM; in experiment [4] it was 59.2 µM; in [5], over 100 µM; in experiment [6] it was over 100 µM. Besides, the TGI in [7] was over 100 µM; in [8] it was over 100 µM; in experiment [9], over 100 µM; in [10], over 100 µM; in experiment [11], 56.6 µM.
Consider `COc1cccc(/C=C2\S/C(=N/Nc3nc(-c4ccc([N+](=O)[O-])cc4)cs3)NC2=O)c1O`, for which the TGI in experiment [1] is 52.9 µM; in experiment [2], 22 µM; in [3], 40.2 µM; in experiment [4], over 100 µM; in experiment [5], 28.9 µM; in experiment [6], 38.9 µM. Also, the TGI in experiment [7] turned out to be 20 µM; in [8] it was 50.9 µM; in experiment [9], 63.3 µM; in experiment [10], 38.7 µM; in [11], 50.5 µM.
For `COc1cccc(C2c3cc4c(cc3OC(Nc3ccccc3)C2C)OCO4)c1OC` (stereo not given), the TGI in experiment [1] was over 100 µM; in [2], over 100 µM; in experiment [3] it was over 100 µM; in experiment [4] it was 6.26 µM; in [5], over 100 µM; in experiment [6] it was 22.9 µM. Besides, the TGI is over 100 µM in experiment [7]; over 100 µM in [8]; 27.6 µM in [9]; over 100 µM in experiment [10]; over 100 µM in experiment [11].
Regarding `COc1ccc2nc3cccc([N+](=O)[O-])c3c(NCCCO)c2c1`, the GI50 was 0.0159 µM and 0.0252 µM in [1]; 0.00141 µM and 0.0132 µM in experiment [2]; 0.00233 µM in experiment [4]; 0.0017 µM in experiment [5]; 0.017 µM and 0.0275 µM in experiment [8]; 0.00583 µM and 0.0153 µM in experiment [9]. In addition, the GI50 was 0.00799 µM and 0.0319 µM in experiment [10]; 0.00174 µM in experiment [11]. Moreover, the TGI in [1] was 0.404 µM and 0.29 µM; in [2], 0.00518 µM and 0.0418 µM; in experiment [3] it was 0.0104 µM and 0.103 µM; in experiment [5], 0.00749 µM and 0.0237 µM; in experiment [6], 0.0517 µM; in experiment [7], 0.0146 µM and 0.0929 µM. Moreover, the TGI in experiment [8] is 0.0435 µM and 0.0788 µM; in [9], 0.0572 µM and 0.133 µM; in experiment [11], 0.0193 µM.
As for `CC(=O)OC(Cc1c(O)c2c(C)cccc2oc1=O)C(C)(C)O` (stereo not given), the TGI in experiment [1], in experiment [2], in [3], in experiment [4], in experiment [5] and in experiment [6] was over 100 µM each time. Moreover, the TGI in [7], in experiment [8], in experiment [9], in experiment [10] and in [11] was over 100 µM in each case.
Turning to `Cc1ccc(C(=O)N/N=C(\N=Nc2ccc(C(=O)O)cc2)c2ccc(N(CCC#N)CCC#N)cc2C)cc1`, the TGI in experiment [1], in experiment [2], in [3], in [4], in experiment [5] and in experiment [6] was over 100 µM throughout. In addition, the TGI in experiment [7], in experiment [8], in experiment [9], in experiment [10] and in experiment [11] was over 100 µM throughout.
With `COc1ccc(/C=C2\C[C@H]3[C@@H]4CCC5=CC(=O)CC[C@]5(C)[C@H]4CC[C@]3(C)C2=O)cc1OC`, the TGI in experiment [1] is over 100 µM; in [2] it was over 100 µM; in experiment [3], over 100 µM; in experiment [4] it was 6.91 µM; in [5] it was 6.85 µM; in experiment [6] it was over 100 µM. Besides, the TGI in [7] was over 100 µM; in experiment [8], over 100 µM; in experiment [9], 47.2 µM; in experiment [10], over 100 µM; in experiment [11], over 100 µM.
With `CCOC1CC(C)N(C(=O)c2ccccc2)O1` (stereo not given), the TGI in [1], in [2], in [3], in experiment [4], in [5] and in [6] was over 100 µM in each case. The TGI in [7], in experiment [8], in experiment [9], in experiment [10] and in [11] was over 100 µM throughout.
With `O=C1CC(=O)NC(=NNS(=O)(=O)c2ccc(Cl)cc2)N1`, the TGI in experiment [1], in experiment [2], in experiment [3], in experiment [4], in experiment [5] and in experiment [6] was over 100 µM throughout. Also, the TGI in experiment [7], in experiment [8], in [9], in experiment [10] and in [11] was over 100 µM in each case.
`c1ccc2c(c1)OC(N1CCCC1)c1cnc(N3CCOCC3)nc1-2` (stereo not given): the TGI is over 100 µM in experiment [1]; over 100 µM in experiment [2]; over 100 µM in experiment [3]; over 100 µM in experiment [4]; 47.2 µM in experiment [5]; over 100 µM in experiment [6]. For the same compound, the TGI is 72.8 µM in experiment [7]; 39.7 µM in experiment [8]; over 100 µM in experiment [9]; over 100 µM in experiment [10]; over 100 µM in [11].
Regarding `CC1C(C#N)(C#N)C(C#N)=C(N)C1(Cl)[N+](=O)[O-]` (stereo not given), the TGI in [1] was 35 µM; in experiment [2] it was 25.2 µM; in experiment [3], 32.9 µM; in experiment [4], 5.16 µM; in experiment [5], 29.4 µM; in experiment [6], 18.1 µM. The TGI in experiment [7] worked out at 26.3 µM; in [8], 31.5 µM; in experiment [9], 5.12 µM; in [10], 36.1 µM; in experiment [11], 20.9 µM.
For the compound `N#Cc1c(O)c(/C=N/c2ncccn2)c(=O)n2c1[nH]c1ccccc12`, the TGI in experiment [1], in [2], in experiment [3], in experiment [4], in [5] and in [6] was over 100 µM in each case. The TGI in [7], in experiment [8], in experiment [9], in experiment [10] and in experiment [11] was over 100 µM throughout.
Consider `Fc1ccc(C(OCCN2CC3CCC(C2)N3CCCc2ccccc2)c2ccc(F)cc2)cc1`, for which the TGI in experiment [1] is 22.1 µM; in experiment [2], 3.63 µM; in [3], 10.4 µM; in experiment [4], 14.1 µM; in [5] it was 19.4 µM; in experiment [6], 13.4 µM. The TGI in experiment [7] was 24.8 µM; in experiment [8], 17.7 µM; in experiment [9] it was 15.6 µM; in experiment [10], 11.8 µM; in [11], 13.6 µM.
Turning to `CCN1CN(c2ccccc2)C2(CCN(CC(CC3OCCO3)c3ccc(F)cc3)CC2)C1=O` (stereo not given), the TGI in [1] was over 92 µM; in [2], 25.5 µM; in experiment [3], over 100 µM; in [4], 49.3 µM; in experiment [5], over 74.8 µM; in experiment [6] it was 39 µM. For the same compound, the TGI is 53.2 µM in [7]; 9.51 µM in [8]; over 43.1 µM in [9]; 18.9 µM in experiment [10]; over 89.5 µM in experiment [11].
